Patent US20140243395A1, “SPRAY SYSTEM FOR PRODUCTION OF A MATRIX FORMED IN SITU” (ETHRIS GMBH, priority 2011, published 2014)

Key:
[1] = solubility of PLGA in the solvent, Matschke et al. 2002; cited from earlier work
[2] = viscosity of solvents, rotational viscometer; assay type: physicochemical; conditions: 25° C.
mouse = conditions: i.v., 20% solution; cited from earlier work
rat = conditions: i.v., 40% DMI in isotonic saline solution (v/v); cited from earlier work
[3] = in vivo; cited from earlier work
mesothelial cells = conditions: human
Procedure: In addition to 10% fetal calf serum (PPA Laboratories, Austria) an epidermal growth factor (5 ng/ml, Sigma-Aldrich, Germany) and hydrocortisone (400 ng/ml, Sigma-Aldrich, Germany) were added to the medium. Furthermore, the cells were passaged at a confluence of about 80% and used for tests up to a passage of 20.
The cytotoxicity of the solvent was determined by an ATP-based assay (ATPlite, Perkin Elmer). […] After the incubation period, the medium was sucked off, the cells were washed once with PBS, 50 μl PBS per well was added, and the cell viability was determined according to the manufacturer's instructions. […] For each point in time, the concentration of the solvent was plotted against the measured cell viability (mean values±standard deviation from n=4 runs) and a non-linear standard function was adapted: […]
The LD50 values were taken from the estimated values of the plotted regression curve. It is the concentration at which a cell viability of still 50% could be measured.
In addition, the influence of the solvent on the metabolic cell viability was studied for a period of 11 hours. Metabolic cell viability is determined by the ATP value of the cells, which is a measure of viability. […]

Compound | PLGA solubility [1] [%] | η (kinematic viscosity) [2] [mPas] | further results
CO[C@H]1CO[C@H]2[C@@H]1OC[C@H]2OC [DMI, Dimethyl isosorbide] | 41 | 8.16 | LD50 (mouse): 6.9 g/kg body weight; LD50 (rat): 5.4 g/kg body weight
CCOC(=O)[C@H](C)O [Ethyl l-lactate] |  | 2.74 | 
CC(=O)OCC(COC(C)=O)OC(C)=O [Triacetin] | 35 | 18.75 | 
Alteplase: recombinantly produced t-PA protein |  |  | half-life in plasma [3]: 3 to 6 min
glycerol formal | 33 | 14.4 | tolerance (LD50) higher by a factor compared to tetraglycol (mesothelial cells): 400
tetrahydrofurfuryl alcohol polyethyleneglycol [tetraglycol] |  | 16.6 | 
